≈ marks a conversion by molar mass, not a printed value.

This experiment has as its system Mycogone perniciosa. The experiment in a line: Antimicrobial activity against Mycogone perniciosa isolates assessed as inhibition of mycelial growth after 12 days. It is filed as functional. Particulars: 288 h, read-out: ED50 (the source's name).
Regarding `COC(=O)Nc1nc2ccccc2[nH]1` [CARBENDAZIM], the EC50 amounted to 0.065 µg/mL (≈ 0.34 µM).

In the case of `CC(C)NC(=O)N1CC(=O)N(c2cc(Cl)cc(Cl)c2)C1=O` [IPRODIONE], the EC50 was determined as 2.69 µg/mL (≈ 8.14 µM).

As to `c1ccc2[nH]c(-c3cscn3)nc2c1` [THIABENDAZOLE], the EC50 worked out at 0.225 µg/mL (≈ 1.12 µM).

For the compound `COC(=O)NC(=S)Nc1ccccc1NC(=S)NC(=O)OC` [THIOPHANATE METHYL], the EC50 stood at 0.773 µg/mL (≈ 2.26 µM).

The record behind these values is ChEMBL document CHEMBL3045411, “Efficacy and effects on yield of different fungicides for control of wet bubble disease of mushroom caused by the mycoparasite Mycogone perniciosa” (2010).
